These are literature values, as cited in patent publication US20260273014A1, “Herbal composition for metabolic syndromes and method of treatment thereof” (priority 2019, published 2026).

The conditions of the series: pure mangiferin (Acosta et al. 2016).

As to `O=c1c2cc(O)c(O)cc2oc2cc(O)c([C@@H]3O[C@H](CO)[C@@H](O)[C@H](O)[C@H]3O)c(O)c12` [mangiferin], the solubility entry is “an issue in most biological models”.
